In assay [1] the test system is SCC058 foreskin fibroblasts. Kind of assay: Sphere formation assay of fibroblasts in suspension culture. Format: cell-based, human. Particulars: day 3, FIG. 1B, 1D. Here is the method: SCC058 foreskin fibroblasts (Millipore) were cultured at 37° C. and 5% CO2 in low serum FibroGro (Millipore). For conversion, 7300 cells/cm^2 were seeded in fibroblast medium containing 1 mM Valproic acid (VPA, Sigma). Then, cells were treated for two days with 1 mM VPA, and 6 μg/ml polybrene (Millipore) and subsequently transferred to low attachment plates in NSC medium for sphere formation. NSC medium consisted of NeuroCult NS-A proliferation medium (StemCell Technologies) supplemented with Penicillin/streptomycin, bFGF (20 ng/ml), EGF (20 ng/ml), BDNF (20 ng/ml), Heparin (2 μg/ml), D114 (500 ng/ml), Jagged1 (500 ng/ml), SHH (500 ng/ml, peprotech), Ascorbic Acid (0.2 mM, Sigma), FGF8a (100 ng/ml), 10% NSC-CM (medium conditioned by ESC-NSCs), and Compound B (2 μM, Roche).
• [3R,4R]-N-{4-[4-(2-Fluoro-6-hydroxy-3-methoxy-benzoyl)-benzoyl amino]-azep+an-3-yl}-4-hydroxy-3,5-dimethyl-benzamide hydrochlorid All growth factors were from R&D systems if not indicated otherwise. To compare effects of other inhibitors, Compound B was replaced by 2 μM Dorsomorphin, 10 uM H89 (Tocris), 10 μM Y27632, or 10 μM GSK650394 (Tocris), respectively. After four days, spheres were dissociated with Accutase and single cells were seeded in low attachment plates in NSC medium supplemented with inhibitor mix comprising 500 ng/ml Noggin (peprotech), 10 μM SB431452 (Tocris), and 1 μM CP21 (Roche).

Another assay relates to ESC-NSCs. Kind of assay: Neural stem cell proliferation, ATP assay (CellTiterGlo). The assay is classed as cell-based, human. The settings on record: ATP assay after four days, FIG. 1A. Here is the method: Embryonic stem cell-derived neural stem cells (ESC-NSCs) were generated as previously described using dual SMAD inhibition protocol (Chambers et al., 2009). NSCs were cultured on POL coated plates at 37° C., 5% CO2 in N2B27 supplemented with bFGF (10 ng/ml), EGF (10 ng/ml), BDNF (20 ng/ml). For Compound B identification, NSCs were seeded on POL coated plates at 21000 cells/cm^2 in N2B27. After cell attachment (4 h), compounds were added at indicated concentrations. Negative control cells were treated with DMSO. Cells were incubated for four days and subsequently the amount of ATP was determined using the CellTiterGlo® kit (Promega) according to the manufacturer's instructions.

Another assay has as its target T1, SGK1 (Homo sapiens, UniProt O00141).
T1 construct: purchased Caliper (PerkinElmer) ProfilerPro Kinase Kits
T1 sequence (O00141 1-431): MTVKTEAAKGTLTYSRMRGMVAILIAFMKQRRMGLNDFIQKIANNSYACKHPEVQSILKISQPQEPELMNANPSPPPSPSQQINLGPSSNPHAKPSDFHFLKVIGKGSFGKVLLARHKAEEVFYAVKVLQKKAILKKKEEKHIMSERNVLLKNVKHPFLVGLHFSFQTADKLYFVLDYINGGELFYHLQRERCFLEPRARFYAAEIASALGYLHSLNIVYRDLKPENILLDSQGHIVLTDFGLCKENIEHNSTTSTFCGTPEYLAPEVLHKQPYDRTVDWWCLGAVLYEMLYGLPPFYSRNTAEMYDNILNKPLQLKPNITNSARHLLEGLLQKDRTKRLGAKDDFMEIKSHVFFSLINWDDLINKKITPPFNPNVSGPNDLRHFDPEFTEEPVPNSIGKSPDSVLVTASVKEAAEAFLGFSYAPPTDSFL
Kind of assay: Kinase selectivity profiling (ProfilerPro Kinase Kits). The assay is classed as biochemical. The settings on record: FIG. 1C. Here is the method: (§1) Kinase Selectivity Profiling Kinase selectivity profiling was performed using ProfilerPro Kinase Kits from Caliper (PerkinElmer) according to the manufacturer's instructions.

In the next assay the target is T2, ROCK2 (Homo sapiens, UniProt O75116).
T2 construct: purchased Caliper (PerkinElmer) ProfilerPro Kinase Kits
Described as above. The settings on record: FIG. 1C. Format: biochemical. Here is the method: as §1

In the next assay the target is T3, MSK1 (Homo sapiens, UniProt O75582).
T3 construct: purchased Caliper (PerkinElmer) ProfilerPro Kinase Kits
Described as above. The assay is classed as biochemical. Particulars: FIG. 1C. Here is the method:
as §1

The next assay concerns AMPK. The assay is described as above. Format: biochemical. Particulars: FIG. 1C. Here is the method:
as §1

In another assay the target is T4, PKA (Homo sapiens, UniProt P17612).
T4 construct: purchased Caliper (PerkinElmer) ProfilerPro Kinase Kits
Described as above. The assay is classed as biochemical. The settings on record: FIG. 1C. Here is the method:
as §1

The target of a further assay is T5, PKGa (Homo sapiens, UniProt Q13976).
T5 construct: purchased Caliper (PerkinElmer) ProfilerPro Kinase Kits
T5 sequence (Q13976 1-671): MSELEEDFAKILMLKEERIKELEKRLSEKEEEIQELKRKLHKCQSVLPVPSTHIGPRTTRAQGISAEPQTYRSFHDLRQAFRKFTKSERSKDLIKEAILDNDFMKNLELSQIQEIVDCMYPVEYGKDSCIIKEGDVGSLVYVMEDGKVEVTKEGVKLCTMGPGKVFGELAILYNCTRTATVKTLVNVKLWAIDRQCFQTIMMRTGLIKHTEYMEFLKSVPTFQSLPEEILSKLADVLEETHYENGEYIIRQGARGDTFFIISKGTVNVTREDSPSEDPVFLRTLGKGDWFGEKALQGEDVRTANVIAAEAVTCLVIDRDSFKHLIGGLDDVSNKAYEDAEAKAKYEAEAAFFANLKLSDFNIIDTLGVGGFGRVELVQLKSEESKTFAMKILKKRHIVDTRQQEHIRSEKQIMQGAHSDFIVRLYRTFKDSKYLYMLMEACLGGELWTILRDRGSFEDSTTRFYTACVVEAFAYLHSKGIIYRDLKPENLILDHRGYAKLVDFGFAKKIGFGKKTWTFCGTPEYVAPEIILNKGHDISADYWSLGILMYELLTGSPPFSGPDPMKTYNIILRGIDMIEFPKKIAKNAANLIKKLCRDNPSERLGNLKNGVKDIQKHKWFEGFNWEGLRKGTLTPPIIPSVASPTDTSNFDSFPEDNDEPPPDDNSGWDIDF
Described as above. The assay is classed as biochemical. The settings on record: FIG. 1C. Here is the method:
as §1

The subject of assay [2] is fibroblast-derived secondary spheres. Kind of assay: Attachment of secondary spheres to laminin substrate (POL). The settings on record: two hours after plating on POL; FIG. 6. The assay is classed as cell-based, human. Here is the method: • [3R,4R]-N-{4-[4-(2-Fluoro-6-hydroxy-3-methoxy-benzoyl)-benzoyl amino]-azep+an-3-yl}-4-hydroxy-3,5-dimethyl-benzamide hydrochlorid All growth factors were from R&D systems if not indicated otherwise. To compare effects of other inhibitors, Compound B was replaced by 2 μM Dorsomorphin, 10 uM H89 (Tocris), 10 μM Y27632, or 10 μM GSK650394 (Tocris), respectively. After four days, spheres were dissociated with Accutase and single cells were seeded in low attachment plates in NSC medium supplemented with inhibitor mix comprising 500 ng/ml Noggin (peprotech), 10 μM SB431452 (Tocris), and 1 μM CP21 (Roche). After 3 days, secondary spheres were seeded on polyornithine-laminin (POL) coated dishes. After attachment (24 hours), medium was replaced with differentiation medium comprising N2B27 (1:1 DMEM/F12 and Neurobasal with beta-mercaptoethanol (50 μM), B27 supplement without vitamin A (1:50, Invitrogen), and N2 supplement (1:100, Invitrogen)) supplemented with antibiotics, BDNF (20 ng/ml), GDNF (20 ng/ml), Laminin ([…]), Ascorbic Acid (0.2 mM) and dibutyryl-cAMP (0.5 mM, Sigma). Every other day, 50% of medium was exchanged. For the first seven days of differentiation, medium was supplemented with the inhibitor mix.

For another assay, the system named is mesenchymal stem cells. Kind of assay: Mesenchymal stem cell proliferation. Format: cell-based. The settings on record: FIG. 1A.

T2 sequence (O75116 whole entry, species assumed): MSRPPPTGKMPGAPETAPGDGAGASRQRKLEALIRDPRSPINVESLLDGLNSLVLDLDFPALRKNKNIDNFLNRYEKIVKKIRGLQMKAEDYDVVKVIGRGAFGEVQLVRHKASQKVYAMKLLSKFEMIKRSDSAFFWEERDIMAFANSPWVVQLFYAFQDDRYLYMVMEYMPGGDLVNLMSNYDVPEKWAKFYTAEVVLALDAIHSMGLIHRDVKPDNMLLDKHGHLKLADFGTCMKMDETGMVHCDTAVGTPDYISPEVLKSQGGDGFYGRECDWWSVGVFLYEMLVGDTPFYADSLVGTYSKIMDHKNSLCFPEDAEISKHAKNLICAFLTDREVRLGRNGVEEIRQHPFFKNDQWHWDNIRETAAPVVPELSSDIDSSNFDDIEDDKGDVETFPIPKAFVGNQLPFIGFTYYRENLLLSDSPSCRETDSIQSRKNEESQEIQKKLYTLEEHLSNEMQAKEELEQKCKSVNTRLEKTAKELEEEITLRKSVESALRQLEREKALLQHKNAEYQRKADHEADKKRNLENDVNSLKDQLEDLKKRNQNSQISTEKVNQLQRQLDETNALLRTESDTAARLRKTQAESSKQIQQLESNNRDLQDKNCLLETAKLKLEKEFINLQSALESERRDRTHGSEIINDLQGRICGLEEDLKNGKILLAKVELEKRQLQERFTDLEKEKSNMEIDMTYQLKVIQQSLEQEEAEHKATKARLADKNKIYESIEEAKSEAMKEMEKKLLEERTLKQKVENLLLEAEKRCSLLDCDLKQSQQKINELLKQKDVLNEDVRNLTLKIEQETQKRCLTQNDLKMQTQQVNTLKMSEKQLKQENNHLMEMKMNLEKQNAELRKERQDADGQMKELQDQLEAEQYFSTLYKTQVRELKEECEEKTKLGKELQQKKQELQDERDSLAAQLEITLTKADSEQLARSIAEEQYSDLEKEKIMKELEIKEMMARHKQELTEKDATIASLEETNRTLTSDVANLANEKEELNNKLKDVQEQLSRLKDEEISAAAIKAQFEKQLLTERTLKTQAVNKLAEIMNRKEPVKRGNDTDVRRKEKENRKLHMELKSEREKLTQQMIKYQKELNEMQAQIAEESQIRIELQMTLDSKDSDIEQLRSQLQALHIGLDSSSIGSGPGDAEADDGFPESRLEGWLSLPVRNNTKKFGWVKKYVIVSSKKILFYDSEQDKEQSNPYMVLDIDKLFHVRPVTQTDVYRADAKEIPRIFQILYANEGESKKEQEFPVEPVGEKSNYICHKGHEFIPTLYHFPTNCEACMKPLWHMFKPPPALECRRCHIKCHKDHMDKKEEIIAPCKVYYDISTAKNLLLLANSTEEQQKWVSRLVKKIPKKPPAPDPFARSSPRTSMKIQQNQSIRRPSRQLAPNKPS
T3 sequence (O75582 whole entry, species assumed): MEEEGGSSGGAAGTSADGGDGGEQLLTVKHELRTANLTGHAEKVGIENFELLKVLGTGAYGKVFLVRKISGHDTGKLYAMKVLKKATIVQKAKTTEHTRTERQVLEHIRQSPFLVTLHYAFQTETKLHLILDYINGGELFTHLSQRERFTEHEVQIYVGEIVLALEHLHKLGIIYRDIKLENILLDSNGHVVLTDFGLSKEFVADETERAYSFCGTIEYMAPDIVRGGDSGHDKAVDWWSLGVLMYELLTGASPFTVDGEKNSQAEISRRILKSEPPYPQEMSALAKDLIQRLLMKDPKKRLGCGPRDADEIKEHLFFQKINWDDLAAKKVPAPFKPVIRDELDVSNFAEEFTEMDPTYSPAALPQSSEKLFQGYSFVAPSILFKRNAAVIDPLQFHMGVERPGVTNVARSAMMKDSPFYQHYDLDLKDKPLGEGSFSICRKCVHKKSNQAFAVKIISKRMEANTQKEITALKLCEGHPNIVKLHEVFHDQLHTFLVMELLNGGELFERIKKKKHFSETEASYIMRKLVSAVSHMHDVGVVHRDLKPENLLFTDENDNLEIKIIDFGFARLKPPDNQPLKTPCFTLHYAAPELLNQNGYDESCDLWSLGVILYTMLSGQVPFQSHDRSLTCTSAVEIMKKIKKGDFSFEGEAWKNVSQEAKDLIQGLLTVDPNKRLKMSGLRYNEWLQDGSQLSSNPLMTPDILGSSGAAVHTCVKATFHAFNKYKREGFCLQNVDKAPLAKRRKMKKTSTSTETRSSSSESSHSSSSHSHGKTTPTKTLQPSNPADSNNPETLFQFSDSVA

As for `COc1ccc(O)c(C(=O)c2ccc(C(=O)N[C@@H]3CCCNC[C@H]3NC(=O)c3cc(C)c(O)c(C)c3)cc2)c1F.Cl` [Compound B, N-{(3R,4R)-4-[4-(2-Fluoro-6-hydroxy-3-methoxy-benzoyl)-benzoylamino]-azepan-3-yl}-4-hydroxy-3,5-dimethyl-benzamide], in [1], the sphere size entry is “significant increase” and the “total cell number in suspension culture” value was “significant increase”. In addition, in the assay on ESC-NSCs, the “proliferation of neural stem cells” value was “promoted proliferation of ESC-NSCs in a dose-dependent manner”. The “inhibition of SGK1” value on SGK1 is recorded as “over 80%”. In addition, on ROCK2, the “inhibition of ROCK2” value was “over 80%”. At MSK1, the “inhibition of MSK1” value is reported as “over 80%”. Further, the “inhibition of AMPK” value in the assay on AMPK is given as “over 80%”. In addition, the “inhibition of PKA” value against PKA was “over 80%”. Also, the “inhibition of PKGa” value against PKGa is on record as “over 80%”. For the same molecule, the “attachment and migration of spheres on laminin substrate” value in [2] was “have attached and started to migrate”. The “effect on mesenchymal stem cells (proliferation)” value in the assay with mesenchymal stem cells is listed as “no effect”.

As to `C[C@@H](N)[C@H]1CC[C@H](C(=O)Nc2ccncc2)CC1` [Compound Y27142, reference compound], the sphere size entry in assay [1] is listed as “increase in sphere size, albeit not at the same extent as Compound B”.

As to `O=S(=O)(NCCNC/C=C/c1ccc(Br)cc1)c1cccc2cnccc12` [Compound H89, reference compound], the sphere size entry in assay [1] is “increase in sphere size, albeit not at the same extent as Compound B”.

The record behind these values is patent publication US10724000B2, “Small molecule based conversion of somatic cells into neural crest cells” (Hoffmann-La Roche Inc., priority 2013, dated 2020).
